# US20260055081A1, “Metal Chelator Compounds, Coordination Complexes, and Methods of Preparation and Use Thereof” (University of Puerto Rico, priority 2022, published 2026)
# Assays:
# [1] = molecular target: T1, Fe(III)-saturated serum transferrin (Fe2-sTf) (Homo sapiens, UniProt P02787); test: Scavenging of Fe(III) from Fe(III)-saturated serum transferrin; assay type: biochemical; settings: 22.5 μM Fe2-sTf with 45 μM DefNEtTrp, pH 7.4, 25° C., monitored over 3 days
# T1 construct: purchased Sigma T2036
# Protocol: The ability of DefNEtTrp to scavenge Fe(ITT) from Fe(ITI)-saturated serum transferrin(Fe2-sTf) was also examined. Fe2-sTf was prepared by reacting micromolar amounts of apo-sTf with 4 mol equiv of in situ prepared [Fe(citrate)2]^5− in 20 mM Hepes buffer (pH 7.4) containing 0.1 M NaCl and 27 mM NaHCO3. The sample was extensively dialyzed by rapid spin dialysis to remove the excess unbound Fe(III). The Fe(III) content was determined by the ferrozine colorimetric assay modified from a literature protocol and by monitoring the Fe2-STf-(CO3)2 LMCT band (λmax 465 nm; ε=5200 M^−1 cm^−1) (Viollier 2000, The ferrozine method revisited: Fe(II)/Fe(III) determination in natural waters. Appl. Geochem. 15 (6): 785-790). To 22.5 μM Fe2-sTf was reacted 45 μM DefNEtTrp (diluted in the same protein buffer while maintaining 5% DMF) in quadruplicate at 25° C. The reaction solutions were left to equilibrate and the LMCT absorbance was monitored after 24 h and 72 h. The reaction solutions were extensively dialyzed and then the protein concentrations were quantified by the Bradford colorimetric assay. The UV-Vis spectra of the washed protein samples were collected.
# [2] = system: Ovarian cancer cell lines; test: NCI 60 five-dose screen, ovarian panel; assay type: cell-based, human; settings: 48 h
# Protocol: (§1) National Cancer Institute Cancer Cell Line (NCI 60) Screen of DefNEtTrp. Details of the methodology for NCI 60 cell line screening are described at http://dtp.nci.nih.gov/branches/btb/ivclsp.html. The cells, grown in supplemented RPMI-1640 medium, are seeded in 96 well plates at an appropriate density and incubated for 24 h. The test compounds are dissolved in DMSO and incubated with cells at a single dose of 10.0 μM for 48 h. The assay is terminated by addition of cold trichloroacetic acid, and the cells are fixed and stained with sulforhodamine B. Bound stain is solubilized, and the absorbance is read on an automated plate reader. […] Using the seven absorbance measurements [time zero, […], control growth, (C), and test growth in the presence of drug at the five concentration levels (Tf)], the percentage growth was calculated at each of the drug concentrations levels as: [(Tf−Ti)/(C−Ti)]×100 for concentrations for which Tf≥Ti and [(Tf−Ti)/Ti]×100 for concentrations for which Tf<Ti. Three-dose response parameters (GI50, TGI, and LC50) were calculated for each of the experimental agents in five dose assay. […] The total growth inhibition (TGI) was calculated from Tf=Ti, which was the drug concentration resulting in total growth inhibition and signified the cytostatic effect. […]
# [3] = system: CNS cancer cell lines; test: NCI 60 five-dose screen, CNS panel; assay type: cell-based, human; settings: 48 h
# Protocol: as §1
# [4] = system: Renal cancer cell lines; test: NCI 60 five-dose screen, renal panel; assay type: cell-based, human; settings: 48 h
# Protocol: as §1
# [5] = system: Non-Small Cell Lung cancer cell lines; test: NCI 60 five-dose screen, non-small cell lung panel; assay type: cell-based, human; settings: 48 h
# Protocol: as §1
# [6] = system: NCI 60 human tumor cell lines; test: NCI 60 cancer cell line screen, all cell lines tested; assay type: cell-based; settings: 48 h
# Protocol: National Cancer Institute Cancer Cell Line (NCI 60) Screen of DefNEtTrp. Details of the methodology for NCI 60 cell line screening are described at http://dtp.nci.nih.gov/branches/btb/ivclsp.html. The cells, grown in supplemented RPMI-1640 medium, are seeded in 96 well plates at an appropriate density and incubated for 24 h. The test compounds are dissolved in DMSO and incubated with cells at a single dose of 10.0 μM for 48 h. The assay is terminated by addition of cold trichloroacetic acid, and the cells are fixed and stained with sulforhodamine B. Bound stain is solubilized, and the absorbance is read on an automated plate reader. […] Using the seven absorbance measurements [time zero, […], control growth, (C), and test growth in the presence of drug at the five concentration levels (Tf)], the percentage growth was calculated at each of the drug concentrations levels as: [(Tf−Ti)/(C−Ti)]×100 for concentrations for which Tf≥Ti and [(Tf−Ti)/Ti]×100 for concentrations for which Tf<Ti. Three-dose response parameters (GI50, TGI, and LC50) were calculated for each of the experimental agents in five dose assay. Growth inhibition of 50% (GI50) was calculated from 100×[(Tf−Ti)/(C−Ti)]=50, which was the drug concentration resulting in a 50% reduction in the net protein increase (as measured by sulforhodamine B, SRB staining) in control cells during the drug incubation. The total growth inhibition (TGI) was calculated from Tf=Ti, which was the drug concentration resulting in total growth inhibition and signified the cytostatic effect. The 50% cellular death (LC50) was calculated from 100×[(Tf−Ti)/Ti]=−50, indicating a net loss of cells following treatment which indicated the concentration of drug resulting in a 50% reduction in the measured protein at the end of the drug treatment as compared to that at the beginning. […] Log GI50, log TGI, and log LC50 are the logarithm molar concentrations producing 50% growth inhibition (GI50), a total growth inhibition (TGI), and a 50% cellular death (LC50), respectively.
# [7] = system: MRC-5 noncancer lung cell line; test: MRC-5 cell viability (MTT assay); assay type: cell-based, human; settings: concentration range examined, maximum 100 μM; 72 h
# Protocol: MRC-5 cell viability studies. A thawed stock of MRC-5 cells was washed with 1×PBS and resuspended in phenol red DMEM media (supplemented with 10% FBS and 1% penicillin-streptomycin) and then seeded in a 100 mm×20 mm (complete, O.D.×H) petri dish and grown in a 5% (v/v) CO2 humidified atmosphere at 37° C. At least three passages were performed to ensure the integrity of the cells. After this point, cells were collected, thoroughly washed with 1×PBS, and then resuspended in phenol red-free DMEM (supplemented with 10% FBS, 1% penicillin-streptomycin, and 2.4 mM L-glutamine) at a 2.0×10^5 cells/mL concentration. A volume of 50 μL of cells was seeded into 96-well plates. Cells were incubated for 24 h. Stock solutions of DefNEtTrp were prepared fresh in DMF at concentrations of 20,000, 10,000, 5,000, 2,000, 1000, 200, 80, and 40 μM. The solutions were diluted 100-fold in 1×PBS to obtain a second set of stock solutions with 1% DMF(v/v). The MRC-5 cells were treated with 50 μL of DefNEtTrp compound solution from the second set of stock solutions to obtain final concentrations of 100, 50, 25, 10, 5, 1, 0.4, and 0.2 μM with 0.5% DMF (v/v). Control wells were the same type of controls as in the Jurkat cell work. Cells were incubated for 68 h and the MTT assay was performed exactly as described for the Jurkat cells.
# [8] = system: Jurkat cells; test: Ferroptosis mechanistic cell viability study (ferrostatin-1); assay type: cell-based, human; settings: 10 μM Fer-1 pretreatment, 2 μM DefNEtTrp, 72 h
# Protocol: Ferroptosis mechanistic cell viability study. Jurkat cells were seeded into 96-well plates, as indicated in the MTT assay described above The cells were treated with 10 μM of the ferroptosis inhibitor ferrostatin-1 (Fer-1). Another group of cells were treated with media alone. After 1 h incubation, half of the cells supplemented with Fer-1 were treated with 2 μM DefNEtTrp or 25 μM [Fe(citrate)2]^5−, as positive control, while the other half was treated with media alone. The final percentage of DMF was maintained at 0.5% (v/v). The MTT assay was performed with these samples (n=6). A student t-test was performed to evaluate the difference in the viability of cells treated with DefNEtTrp or [Fe(citrate)2]^5− and supplemented with and without Fer-1.
# [9] = cell lines in which TGI was observed
# [10] = Homo sapiens, read-out: GI50 (calculated average)
# T1 sequence (P02787 20-698): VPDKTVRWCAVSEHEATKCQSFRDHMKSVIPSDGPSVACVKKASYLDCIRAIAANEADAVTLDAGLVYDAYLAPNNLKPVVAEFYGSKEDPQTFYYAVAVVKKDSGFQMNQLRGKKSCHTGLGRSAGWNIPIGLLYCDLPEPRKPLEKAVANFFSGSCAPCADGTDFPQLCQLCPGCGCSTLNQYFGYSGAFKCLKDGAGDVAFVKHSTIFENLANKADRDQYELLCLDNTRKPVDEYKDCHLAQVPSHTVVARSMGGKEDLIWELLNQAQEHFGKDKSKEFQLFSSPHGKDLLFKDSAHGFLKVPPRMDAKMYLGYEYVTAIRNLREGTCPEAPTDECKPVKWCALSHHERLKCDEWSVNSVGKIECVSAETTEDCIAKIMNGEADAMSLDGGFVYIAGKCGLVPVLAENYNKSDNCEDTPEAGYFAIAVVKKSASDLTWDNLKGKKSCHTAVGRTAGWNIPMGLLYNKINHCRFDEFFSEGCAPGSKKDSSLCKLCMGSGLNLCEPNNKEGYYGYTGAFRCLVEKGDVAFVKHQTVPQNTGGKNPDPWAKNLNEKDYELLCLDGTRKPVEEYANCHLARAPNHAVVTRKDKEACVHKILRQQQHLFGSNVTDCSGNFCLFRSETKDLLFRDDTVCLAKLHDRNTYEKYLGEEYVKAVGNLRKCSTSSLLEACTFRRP
compound,measurement,setting,value
"Nc1cccnc1/C=N/NC(=S)NCCNC(=O)c1ccc(-n2nc(-c3ccccc3O)nc2-c2ccccc2O)cc1 [DefNEtTrp, deferasirox nitrogen ethyl triapine]",removal of Fe(III) from Fe2-sTf (LMCT absorbance 465 nm),[1],no metal dissociation
same,TGI (calculated average),[2]; [9],9.82 µM
same,GI50,[2]; [10],1.12 µM
same,TGI (calculated average),[3]; [9],12.43 µM
same,GI50,[3]; [10],0.5 µM
same,TGI (calculated average),[4]; [9],13.71 µM
same,GI50,[4]; [10],4.97 µM
same,TGI (calculated average),[5]; [9],6.33 µM
same,GI50,[5]; [10],0.73 µM
same,GI50,"[6]; Homo sapiens, five-dose assay, average over all cell lines, read-out: average GI50 concentration, all cell lines",1.2 µM
same,LC50,"[6]; Homo sapiens, five-dose assay, average over cell lines with 50% cell death",38.9 µM
same,share of cell lines tested with total cell growth inhibition,[6]; five-dose assay,77%
same,share of tested cell lines with 50% cell death,[6]; five-dose assay,14%
same,average TGI concentration,"[6]; five-dose assay, average over cell lines in which TGI was observed",8.5 µM
same,antiproliferative activity in one-dose test,[6]; one-dose test of 10 μM,very promising broad spectrum antiproliferative activity
same,antiproliferative behavior against MRC-5,[7],no antiproliferative behavior
same,change in cell viability of cells pretreated with Fer-1,[8],two-fold increase in the cell viability
